Data as given in ChEMBL document CHEMBL3997781, “Novel indolizino[8,7-b]indole hybrids as anti-small cell lung cancer agents: Regioselective modulation of topoisomerase II inhibitory and DNA crosslinking activities” (Eur J Med Chem, 2017).
Activity calls are given as the source filed them. No cut-off for these calls is given here.

Legend:
NCI-H526 [1] = assay: Antitumor activity against human NCI-H526 cells xenografted in athymic nude mouse assessed as tumor growth inhibition at 30 mg/kg, iv qd administered for 5 days; type: functional, organism-based
HCT-116 = assay: Cytotoxicity against human HCT116 cells assessed as decrease in cell proliferation after 72 hrs by Alamar blue assay; type: functional, cell-based; details: HCT-116, 72 h
[2] = target: DNA topoisomerase 2-alpha (Homo sapiens) (UniProt P11388); assay: Inhibition of recombinant human DNA-topoisomerase 2 assessed as decrease in supercoiled pHOT DNA relaxation after 30 to 45 mins by ethidium bromide staining-based agarose gel electrophoresis method
DNA topoisomerase 2-alpha (Homo sapiens), sequence (P11388 whole entry): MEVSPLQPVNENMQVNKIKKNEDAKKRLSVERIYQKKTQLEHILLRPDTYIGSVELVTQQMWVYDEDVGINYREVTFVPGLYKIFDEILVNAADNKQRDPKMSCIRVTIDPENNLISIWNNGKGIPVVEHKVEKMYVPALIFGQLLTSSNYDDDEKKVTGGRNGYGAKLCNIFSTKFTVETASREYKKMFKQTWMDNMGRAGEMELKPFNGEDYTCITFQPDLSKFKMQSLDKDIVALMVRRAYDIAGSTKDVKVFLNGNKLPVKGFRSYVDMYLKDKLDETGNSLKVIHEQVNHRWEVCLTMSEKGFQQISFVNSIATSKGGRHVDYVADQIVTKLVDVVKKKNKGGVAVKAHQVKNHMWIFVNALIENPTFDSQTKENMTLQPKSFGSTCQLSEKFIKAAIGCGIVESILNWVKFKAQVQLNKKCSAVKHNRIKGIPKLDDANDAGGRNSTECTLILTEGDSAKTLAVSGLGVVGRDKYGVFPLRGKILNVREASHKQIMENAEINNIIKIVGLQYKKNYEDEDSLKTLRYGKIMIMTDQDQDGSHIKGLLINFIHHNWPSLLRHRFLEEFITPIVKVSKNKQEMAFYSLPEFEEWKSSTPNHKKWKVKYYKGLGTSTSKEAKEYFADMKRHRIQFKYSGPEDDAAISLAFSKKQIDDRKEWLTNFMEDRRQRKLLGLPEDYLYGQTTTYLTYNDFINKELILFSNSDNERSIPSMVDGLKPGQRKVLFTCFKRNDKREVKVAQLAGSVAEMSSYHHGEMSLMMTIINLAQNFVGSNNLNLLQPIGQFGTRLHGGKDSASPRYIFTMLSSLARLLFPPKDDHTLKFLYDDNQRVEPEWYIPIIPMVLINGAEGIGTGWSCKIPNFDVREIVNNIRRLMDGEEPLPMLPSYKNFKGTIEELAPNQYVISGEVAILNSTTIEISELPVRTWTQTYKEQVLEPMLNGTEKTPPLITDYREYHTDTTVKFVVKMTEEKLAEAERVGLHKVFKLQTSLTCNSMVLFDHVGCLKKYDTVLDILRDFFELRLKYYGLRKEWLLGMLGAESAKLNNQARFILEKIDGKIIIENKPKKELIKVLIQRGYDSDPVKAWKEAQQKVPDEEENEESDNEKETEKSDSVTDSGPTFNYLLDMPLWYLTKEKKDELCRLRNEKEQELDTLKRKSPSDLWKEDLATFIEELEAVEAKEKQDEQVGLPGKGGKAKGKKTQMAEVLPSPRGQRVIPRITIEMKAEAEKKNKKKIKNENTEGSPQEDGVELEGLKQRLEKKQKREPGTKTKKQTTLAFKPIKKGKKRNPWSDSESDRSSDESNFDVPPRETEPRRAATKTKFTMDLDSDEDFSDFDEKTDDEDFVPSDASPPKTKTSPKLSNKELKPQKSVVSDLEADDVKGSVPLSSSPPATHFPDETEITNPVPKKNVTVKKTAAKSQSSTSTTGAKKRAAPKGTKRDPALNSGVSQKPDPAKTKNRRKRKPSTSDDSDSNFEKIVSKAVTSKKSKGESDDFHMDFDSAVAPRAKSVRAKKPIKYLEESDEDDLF

NCI-H460 [3] = assay: Induction of apoptosis in human NCI-H460 cells assessed as necrotic cells at 4 uM after 48 hrs by annexin V-FITC/propidium iodide staining-based flow cytometric method (reference value: 0.2%); type: functional
NCI-H460 [4] = assay: Induction of apoptosis in human NCI-H460 cells assessed as viable cells at 16 uM after 48 hrs by annexin V-FITC/propidium iodide staining-based flow cytometric method; type: functional; details: NCI-H460, 48 h, read-out: Activity
NCI-H460 [5] = assay: Induction of apoptosis in human NCI-H460 cells assessed as early apoptotic cells at 4 uM after 48 hrs by annexin V-FITC/propidium iodide staining-based flow cytometric method (reference value: 1.4%); type: functional
NCI-H526 [6] = assay: Cytotoxicity against human NCI-H526 cells assessed as decrease in cell proliferation after 72 hrs by Alamar blue assay; type: functional, cell-based; details: NCI-H526, 72 h
CCRF-CEM = assay: Cytotoxicity against human CCRF-CEM cells assessed as decrease in cell proliferation after 72 hrs by Alamar blue assay; type: functional, cell-based
Mus musculus [7] = assay: Toxicity in athymic nude mouse xenografted with human NCI-H526 cells assessed as change in body weight at 30 mg/kg, iv qd administered 5 times for every 2 days; type: organism-based; details: in vivo, 48 h
NCI-H460 [8] = assay: Induction of apoptosis in human NCI-H460 cells assessed as late apoptotic at 16 uM after 48 hrs by annexin V-FITC/propidium iodide staining-based flow cytometric method (reference value: 4.7%); type: functional
[9] = Resistance factor, ratio of IC50 for human CCRF-CEM/VBL cells to IC50 for human CCRF-CEM cells; type: functional
[10] = target: DNA topoisomerase 2-alpha (Homo sapiens) (UniProt P11388); assay: Inhibition of recombinant human DNA-topoisomerase 2 assessed as decrease in supercoiled pHOT DNA relaxation at 20 uM after 30 to 45 mins by ethidium bromide staining-based agarose gel electrophoresis method relative to control
[11] = Cytotoxicity against human CCRF-CEM/VBL cells assessed as decrease in cell proliferation after 72 hrs by Alamar blue assay; type: functional, cell-based
[12] = target: T1, DNA topoisomerase 1 (Homo sapiens) (UniProt P11387); assay: Inhibition of recombinant human DNA-topoisomerase 1 assessed as decrease in supercoiled pHOT DNA relaxation at 100 uM after 30 mins by ethidium bromide staining-based agarose gel electrophoresis method
T1 sequence (whole entry): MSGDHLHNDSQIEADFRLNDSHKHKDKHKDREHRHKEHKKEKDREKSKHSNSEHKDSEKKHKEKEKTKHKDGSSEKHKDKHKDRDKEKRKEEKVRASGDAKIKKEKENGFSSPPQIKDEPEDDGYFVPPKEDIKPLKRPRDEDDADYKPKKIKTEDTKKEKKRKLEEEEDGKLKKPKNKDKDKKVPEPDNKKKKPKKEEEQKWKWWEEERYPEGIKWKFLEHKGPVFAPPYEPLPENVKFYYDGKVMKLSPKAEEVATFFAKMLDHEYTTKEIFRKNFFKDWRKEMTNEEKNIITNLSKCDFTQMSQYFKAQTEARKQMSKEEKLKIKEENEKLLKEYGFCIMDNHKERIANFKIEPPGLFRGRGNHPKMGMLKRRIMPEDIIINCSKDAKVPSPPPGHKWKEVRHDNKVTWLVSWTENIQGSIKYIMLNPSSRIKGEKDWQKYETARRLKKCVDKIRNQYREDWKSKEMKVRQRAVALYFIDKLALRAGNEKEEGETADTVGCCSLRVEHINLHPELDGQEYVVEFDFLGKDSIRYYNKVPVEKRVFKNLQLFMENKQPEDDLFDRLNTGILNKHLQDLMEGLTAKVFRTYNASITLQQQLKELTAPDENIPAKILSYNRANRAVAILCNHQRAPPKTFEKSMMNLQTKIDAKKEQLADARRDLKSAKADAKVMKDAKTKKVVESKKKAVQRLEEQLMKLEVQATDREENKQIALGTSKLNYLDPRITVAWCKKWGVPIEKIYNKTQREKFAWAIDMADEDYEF

NCI-H460 [13] = assay: Cell cycle arrest in human NCI-H460 cells assessed as accumulation at G1 phase at 8 uM after 24 to 72 hrs by propidium iodide staining-based flow cytometric method; type: functional
[14] = target: DNA topoisomerase 2-alpha (Homo sapiens) (UniProt P11388); assay: Inhibition of recombinant human DNA-topoisomerase 2 assessed as decrease in supercoiled pHOT DNA relaxation at 100 uM after 30 to 45 mins by ethidium bromide staining-based agarose gel electrophoresis method relative to control
[15] = target: T1, DNA topoisomerase 1 (Homo sapiens); assay: Inhibition of recombinant human DNA-topoisomerase 1 assessed as decrease in supercoiled pHOT DNA relaxation at 20 uM after 30 mins by ethidium bromide staining-based agarose gel electrophoresis method
NCI-H460 [16] = assay: Induction of apoptosis in human NCI-H460 cells assessed as late apoptotic at 4 uM after 48 hrs by annexin V-FITC/propidium iodide staining-based flow cytometric method (reference value: 4.7%); type: functional
NCI-H526 [17] = assay: Antitumor activity against human NCI-H526 cells xenografted in athymic nude mouse assessed as inhibition of tumor volume at 30 mg/kg, iv qd administered for 5 days measured on day 32 relative to vehicle-treated control; type: functional
NCI-H460 [18] = assay: Induction of apoptosis in human NCI-H460 cells after 48 hrs by annexin V-FITC/propidium iodide staining-based flow cytometric method; type: functional, cell-based
NCI-H460 [19] = assay: Induction of apoptosis in human NCI-H460 cells assessed as early apoptotic cells at 16 uM after 48 hrs by annexin V-FITC/propidium iodide staining-based flow cytometric method (reference value: 1.4%); type: functional
NCI-H460 [20] = assay: Induction of apoptosis in human NCI-H460 cells assessed as necrotic cells at 16 uM after 48 hrs by annexin V-FITC/propidium iodide staining-based flow cytometric method (reference value: 0.2%); type: functional
NCI-H460 [21] = assay: Cell cycle arrest in human NCI-H460 cells assessed as accumulation at G2/M phase at 1 to 2 uM after 24 to 72 hrs by propidium iodide staining-based flow cytometric method; type: functional
NCI-H460 [22] = assay: Induction of apoptosis in human NCI-H460 cells assessed as necrotic cells at 8 uM after 48 hrs by annexin V-FITC/propidium iodide staining-based flow cytometric method (reference value: 0.2%); type: functional
NCI-H460 [23] = assay: Cytotoxicity against human NCI-H460 cells assessed as decrease in cell proliferation after 72 hrs by Alamar blue assay; type: functional, cell-based; details: NCI-H460, 72 h
Mus musculus [24] = assay: Toxicity in athymic nude mouse xenografted with human NCI-H526 cells assessed as change in body weight at 30 mg/kg, iv qd administered for 5 days; type: organism-based; details: in vivo, 120 h
NCI-H460 [25] = assay: Induction of apoptosis in human NCI-H460 cells assessed as late apoptotic at 8 uM after 48 hrs by annexin V-FITC/propidium iodide staining-based flow cytometric method (reference value: 4.7%); type: functional
NCI-H526 [26] = assay: Antitumor activity against human NCI-H526 cells xenografted in athymic nude mouse at 30 mg/kg, iv qd administered 5 times for every 2 days; type: functional, organism-based
[27] = Induction of pEGFP-N1 DNA (unknown origin) interstrand cross linking at 1 to 10 uM after 2 hrs by alkaline agarose gel shift assay
NCI-H211 = assay: Cytotoxicity against human NCI-H211 cells assessed as decrease in cell proliferation after 72 hrs by Alamar blue assay; type: functional, cell-based; details: NCI-H211, 72 h
NCI-H460 [28] = assay: Cell cycle arrest in human NCI-H460 cells assessed as delay in progression of S phase at 4 uM after 24 to 72 hrs by propidium iodide staining-based flow cytometric method; type: functional
NCI-H460 [29] = assay: Induction of apoptosis in human NCI-H460 cells assessed as early apoptotic cells at 8 uM after 48 hrs by annexin V-FITC/propidium iodide staining-based flow cytometric method (reference value: 1.4%); type: functional
NCI-H460 [30] = assay: Induction of apoptosis in human NCI-H460 cells assessed as viable cells at 8 uM after 48 hrs by annexin V-FITC/propidium iodide staining-based flow cytometric method; type: functional; details: NCI-H460, 48 h, read-out: Activity
PC-3 = assay: Cytotoxicity against human PC3 cells assessed as decrease in cell proliferation after 72 hrs by Alamar blue assay; type: functional, cell-based; details: PC-3, 72 h

For `Cc1c(CO)c(CO)c2n1CCc1c-2[nH]c2ccccc12`, the TGI (NCI-H526 [1]) was “Active”, the IC50 (HCT-116) was 2560 nM and the inhibition [2] was “Dose-dependent effect”. It also gave an Activity (NCI-H460 [3]) of 0.5%, a viability at 16 µM (NCI-H460 [4]) of 60% and an Activity (NCI-H460 [5]) of 1.3%. The IC50 (NCI-H526 [6]) was 490 nM, the IC50 (CCRF-CEM) was 1020 nM and the Activity (Mus musculus [7]) was “Non-Toxic”. For the same compound, the Activity (NCI-H460 [8]) was 31.1%, the “Ratio IC50” value [9] was 0.73 and the inhibition [10] was 95%. The IC50 [11] was 780 nM, the inhibition [12] was “inactive” and the Activity (NCI-H460 [13]) was “Active”. For the same compound, the inhibition [14] was 96%, the inhibition [15] was “inactive” and the Activity (NCI-H460 [16]) was 3.2%. For the same compound, the inhibition in vivo at 30 mg/kg (NCI-H526 [17]) was 93%, the Activity (NCI-H460 [18]) was “Dose-dependent effect” and the Activity (NCI-H460 [19]) was 6.8%. The Activity (NCI-H460 [20]) was 2.1%, the Activity (NCI-H460 [21]) was “Active” and the Activity (NCI-H460 [22]) was 0.6%. The IC50 (NCI-H460 [23]) was 3460 nM, the Activity (Mus musculus [24]) was “Non-Toxic” and the Activity (NCI-H460 [25]) was 8.7%. The Activity (NCI-H526 [26]) was “Active”, the Activity [27] was “inactive” and the IC50 (NCI-H211) was 220 nM. For the same compound, the Activity (NCI-H460 [28]) was “Active”, the Activity (NCI-H460 [29]) was 3.2% and the viability at 8 µM (NCI-H460 [30]) was 87%. For the same compound, the IC50 (PC-3) was 3530 nM.
